The values that follow come from publication PMC11054528, “Evaluation of Physicochemical Properties of Ipsapirone Derivatives Based on Chromatographic and Chemometric Approaches” (Molecules, 2024).

The conditions of series [1]: calibration mixture for IAM-HPLC, reference CHI value; column head printed CHI C18; cited from earlier work.
Series [2] deals with T1, human serum albumin (HSA) (Homo sapiens, UniProt P02768). The note with it: calibration mixture for HSA-HPLC, reference value; column head printed CHI C18; cited from earlier work.
The conditions of series [3]: calibration mixture for C18-HPLC, reference CHI value; cited from earlier work.
Series [4] is described as follows: IAM-HPLC, immobilized artificial membrane chromatography (affinity to phospholipids). Type of series: physicochemical. Further details: scale not given here. The note with it: IAM.PC.DD2 column, pH 7.4. The source says:
In considering that lipophilicity is a known factor influencing passive diffusion across the BBB, this is an important observation. The affinity to phospholipids can also be determined using one-gradient protocols and the IAM column. CHIIAM can be used as a cut-off point to indicate the potential for promiscuous binding and interference with phospholipids.
The immobilized artificial membrane column (IAM.PC.DD2, 10 × 4.6 mm × 10.0 µm with a guard column (Regis Technologies; Morton Grove, IL, USA) was used for IAM-HPLC experiments. The column temperature was set to 30 °C. Similar to RP-HPLC, mobile phase A was a 50 mM ammonium acetate at pH 7.4, and mobile phase B was acetonitrile. The linear gradient from […] ACN was applied from 0 to 5.25 min and held at 98% ACN for 0.5 min at a constant flow rate of 1.5 mL/min.

Series [5] in a line: Fast gradient RP-HPLC on C18 column (CHI lipophilicity). Type of series: physicochemical. The following applies: for CHIC18 pH = 2.6 / CHIC18 pH = 7.4 / CHIC18 pH = 10.6: C18 column; for CHI LogP: from chromatographically determined CHI on nonionized forms (pH 10.6), CHI LogP = 0.054 × CHI − 1.467. The source says: Considering the significant differences in the calculations obtained, the next step of our investigation considered the determination of lipophilicity using a chromatographic approach. Among the available protocols, the fast gradient approach developed by Valko was chosen because it enables the assessment of lipophilicity from a single chromatographic measurement. In addition, this approach enables the determination of the acid/basic properties of molecules through the addition of experiments under different pH conditions.
Therefore, the CHI under pH10.6 can be considered and converted to chromatographically determined LogP, called CHI LogP. A cluster analysis (CA) was performed to compare chromatographically determined and calculated lipophilicity. A CA can be used for the visualization of similarities and differences between studied objects, in this case, lipophilic parameters. The obtained results clearly indicate that significant differences between theoretical and experimental data occurred, and they formed two separate groups (Figure 1). The differences are also visible on the calculated correlation matrix (Figure 2).
For RP-HPLC experiments, a C18 Hypersil GOLD^TM (50 mm × 4.6 mm; 5.0 µm with a guard column; Thermo Scientific, Waltham, MA, USA) column was applied. The column temperature was set to 40 °C. Three water solutions were used as mobile phase A: acetic acid at pH 2.6, […] at pH 7.4, and 50 mM ammonium acetate at pH 10.5. Mobile phase B was acetonitrile (ACN). The linear gradient from 2 to 98% ACN was applied from 0 to 5.25 min and held at 98% ACN for 1.75. The mobile phase flow rate was 1.5 mL/min throughout the experiment.

The target of series [6] is T1, human serum albumin (HSA). In words: HSA-HPLC, biomimetic chromatography on Chiralpak HSA column. Type of series: in vitro ADME. Further details: purchased Daicel Chiral Technologies, West Chester, PA, USA. The following applies: for LogKHSA: pH 7.4; for %HSA: pH 7.4, recalculated from logKHSA. The source says:
Utilizing columns modified by plasma proteins, such as human serum albumin (HSA), allows for estimating binding to plasma protein (PPB). Generally, PPB affects drug pharmacokinetics, including distribution, half-life, and clearance. While lipophilicity is a well-known factor in determining PPB, it should also be considered in early drug discovery. In general, more lipophilic compounds tend to have higher percentages of PP due to nonspecific interactions with proteins. However, hydrophilic compounds can also bind strongly to PP through […] and electrostatic interactions by binding in protein pockets.
For HSA-HPLC experiments, the column was Chiralpak® HSA (100 × 4 mm; 5 µm with safety guard column; Daicel Chiral Technologies, West Chester, PA, USA). The column temperature was set to 30 °C. The same phase A as in the IAM-HPLC case was used, and the mobile phase B was isopropanol (i-PrOH). The linear gradient from 0 to 20% i-PrOH was applied from 0 to 15 min, held at 20% i-PrOH for 12 min, and then returned to pure ammonium acetate solution. The mobile phase flow rate was 0.9 mL/min throughout the experiment. Three minutes of column recalibration was applied between each run. The retention times were collected at wavelengths between 190 and 300 nm, and the injection volume was 10 μL.

T1 sequence (P02768 25-609): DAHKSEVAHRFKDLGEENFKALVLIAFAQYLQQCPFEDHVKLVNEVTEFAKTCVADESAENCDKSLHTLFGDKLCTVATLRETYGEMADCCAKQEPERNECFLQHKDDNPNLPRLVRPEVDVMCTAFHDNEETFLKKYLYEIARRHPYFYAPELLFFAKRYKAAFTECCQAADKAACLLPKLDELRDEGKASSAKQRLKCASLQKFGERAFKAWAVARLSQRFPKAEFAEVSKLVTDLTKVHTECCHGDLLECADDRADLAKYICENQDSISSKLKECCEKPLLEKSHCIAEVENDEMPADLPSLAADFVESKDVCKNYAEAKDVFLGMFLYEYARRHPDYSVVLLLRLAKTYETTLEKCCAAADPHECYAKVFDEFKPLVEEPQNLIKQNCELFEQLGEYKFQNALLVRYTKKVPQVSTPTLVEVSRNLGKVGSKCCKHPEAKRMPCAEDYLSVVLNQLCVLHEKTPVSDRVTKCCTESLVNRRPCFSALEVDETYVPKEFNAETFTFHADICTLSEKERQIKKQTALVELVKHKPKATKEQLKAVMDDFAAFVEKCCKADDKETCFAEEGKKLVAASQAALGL

On to `CC(=O)Nc1ccccc1` [Acetanilidine], for which, in series [1], the “CHI (IAM-HPLC calibration)” value was 11.5.
For `CC(=O)c1ccccc1` [Acetophenone], the “CHI (IAM-HPLC calibration)” value in series [1] is reported as 17.2.
With `CCCC(=O)c1ccccc1` [Butyrophenone], the “CHI (IAM-HPLC calibration)” value in series [1] is 32.0.
As for `CCCCCCC(=O)c1ccccc1` [Heptanophenone], the “CHI (IAM-HPLC calibration)” value in series [1] is 45.7.
In the case of `CCCCCC(=O)c1ccccc1` [Hexanophenone], the “CHI (IAM-HPLC calibration)” value in series [1] is 41.8.
Consider `CNC(=C[N+](=O)[O-])NCCSCc1csc(CN(C)C)n1` [Nizatidine], for which the “HSA binding (HSA-HPLC calibration)” value in series [2] is 35.0%.
Turning to `CCCCCCCC(=O)c1ccccc1` [Octanophenone], the “CHI (IAM-HPLC calibration)” value in series [1] is recorded as 49.4.
With `CC(=O)Nc1ccc(O)cc1` [Paracetamol], in series [1], the “CHI (IAM-HPLC calibration)” value was 2.9.
As for `CCC(=O)c1ccccc1` [Propiophenone], the “CHI C18” value in series [3] is recorded as 77.5. In series [1], the “CHI (IAM-HPLC calibration)” value is recorded as 25.9.
Consider `CCCCC(=O)c1ccccc1` [Valerophenone], for which, in series [1], the “CHI (IAM-HPLC calibration)” value is given as 37.3.
With `O=C1c2ccccc2S(=O)(=O)N1CCCCCCN1CCN(c2ccccc2F)CC1` [molecule 20], the CHIIAM in series [4] is recorded as 42.69. Moreover, in series [5], the “CHIC18 pH = 2.6” value was 57.21, the “CHIC18 pH = 7.4” value came out at 97.64, the “CHIC18 pH = 10.6” value was determined as 104.68 and the “CHI LogP” value amounted to 4.19. Further, in series [6], the LogKHSA was found to be 1.00 and the “%HSA” value is 91.90%.
`O=C1c2ccccc2S(=O)(=O)N1CCCCCCN1CCN(c2cccc3ccccc23)CC1` [molecule 21] showed a CHIIAM in series [4] of 48.85. In series [5], the “CHIC18 pH = 2.6” value amounted to 65.07, the “CHIC18 pH = 7.4” value came out at 109.08, the “CHIC18 pH = 10.6” value is given as 118.03 and the “CHI LogP” value was found to be 4.91. Besides, in series [6], the LogKHSA stood at 1.75 and the “%HSA” value is listed as 99.25%.
In series [4], `O=C1c2ccccc2S(=O)(=O)N1CCCCCCN1CCN(c2ccccn2)CC1` [molecule 22] returned a CHIIAM of 38.48. For the same compound, in series [5], the “CHIC18 pH = 2.6” value came out at 43.25, the “CHIC18 pH = 7.4” value stood at 82.33, the “CHIC18 pH = 10.6” value is listed as 90.87 and the “CHI LogP” value stood at 3.44. Also, in series [6], the LogKHSA is recorded as 0.55 and the “%HSA” value is given as 78.60%.
For `O=C1c2ccccc2S(=O)(=O)N1CCCCCCN1CCN(c2ncccn2)CC1` [molecule 23], the CHIIAM in series [4] amounted to 34.77. In series [5], the “CHIC18 pH = 2.6” value is given as 41.03, the “CHIC18 pH = 7.4” value is listed as 80.76, the “CHIC18 pH = 10.6” value amounted to 89.54 and the “CHI LogP” value turned out to be 3.37. Further, in series [6], the “affinity to HSA, in words” value is listed as “relatively low-binding to HAS”; the LogKHSA is −0.05; the “%HSA” value was 47.66%.
`O=C1c2ccccc2S(=O)(=O)N1CCCCCCN1CCN(c2nsc3ccccc23)CC1` [molecule 24] displayed a CHIIAM in series [4] of 45.78. In series [5], the “CHIC18 pH = 2.6” value is given as 60.18, the “CHIC18 pH = 7.4” value was 102.90, the “CHIC18 pH = 10.6” value came out at 107.33 and the “CHI LogP” value amounted to 4.33. Besides, in series [6], the LogKHSA was found to be 1.23 and the “%HSA” value is on record as 95.36%.
Take `O=C1c2ccccc2S(=O)(=O)N1CCCCCCN1CCN(c2cccc3sccc23)CC1` [molecule 25]: the CHIIAM in series [4] worked out at 45.96. In series [5], the “CHIC18 pH = 2.6” value is on record as 60.65, the “CHIC18 pH = 7.4” value worked out at 101.68, the “CHIC18 pH = 10.6” value is 108.64 and the “CHI LogP” value came out at 4.40. In addition, in series [6], the LogKHSA stood at 1.57 and the “%HSA” value is 98.37%.
`COc1ccccc1N1CCN(Cc2ccc(CN3C(=O)c4ccccc4S3(=O)=O)cc2)CC1` [molecule 26]: the CHIIAM in series [4] came out at 41.48. In addition, in series [5], the “CHIC18 pH = 2.6” value came to 55.76, the “CHIC18 pH = 7.4” value was found to be 100.20, the “CHIC18 pH = 10.6” value came out at 100.01 and the “CHI LogP” value turned out to be 3.93. Further, in series [6], the LogKHSA is recorded as 1.19 and the “%HSA” value is given as 94.87%.
